1 compound from patent publication US20080096894A1, “Anti-Bacterial Compounds” (ASTON UNIVERSITY, priority 2005, published 2008) can be followed below.

What all share (experiment): MIC, doubling dilution in 96-well microtitre plate
Holding throughout (assay type): cell-based

For experiment [1], the system named is Streptococcus bovis NCTC 11436. On the procedure: (§1) The compound was tested as follows. […] The wells were inoculated with organism ([…] of medium containing 10^6 cfu/mL) and the plates were incubated at 37° C. overnight. Where growth of organism occurred this was observed as a small button when viewed from underneath the plate. The MIC was determined as the lowest concentration inhibiting growth.

The subject of the next experiment is Micrococcus roseus. On the procedure:
as §1

The next experiment relates to Bacillus subtilis. On the procedure: as §1
The test system of the next experiment is Bacillus polymyxa. The method, then:
as §1

The subject of a further experiment is Micrococcus luteus. On the procedure:
as §1

The subject of the next experiment is Enterococcus faecium. The method, then: as §1
The subject of the next experiment is Bacillus megarerium. The method, then: as §1
In experiment [2] the test system is Enterococcus faecalis NCTC 5957. On the procedure: as §1
The test system of a further experiment is Moraxella catarrhalis. On the procedure:
as §1

In a further experiment the test system is Bacillus cereus. On the procedure:
as §1

Experiment [3] relates to Staphylococcus epidermidis NCTC 11047. The method, then:
as §1

The subject of experiment [4] is Staphylococcus aureus (MRSA) 96-7475. The method, then: as §1
Experiment [5] concerns Staphylococcus aureus NCTC 6571. The method, then:
as §1

For `CC(C)(C)c1cc(C=NN=C(N)c2cc[n+]([O-])cc2)c(O)c(C(C)(C)C)c1` [Compound 4PYOcq], the MIC is 64 to 128 µg/mL in experiment [1]; 1 to 2 µg/mL with Micrococcus roseus; 64 to 128 µg/mL against Bacillus subtilis; 1 to 2 µg/mL with Bacillus polymyxa; 8 to 16 µg/mL against Micrococcus luteus; 32 to 64 µg/mL with Enterococcus faecium (Enterococcus faecium ATCC 10541). The MIC in the experiment with Enterococcus faecium (Enterococcus faecium NCTC 7171) was 32 to 64 µg/mL; in the experiment on Bacillus megarerium, 32 to 64 µg/mL; in experiment [2], 64 to 128 µg/mL; in the experiment with Moraxella catarrhalis it was 32 to 64 µg/mL; in the experiment with Bacillus cereus, 16 to 32 µg/mL; in experiment [3], 32 to 64 µg/mL. Further, the results for the minimum inhibitory concentration (MIC) in experiment [4] and in experiment [5] were 64 to 128 µg/mL and 16 to 32 µg/mL, respectively.
